In EP4671245A1, “HETEROAROMATIC RING COMPOUND SERVING AS CDK7 KINASE INHIBITOR, PREPARATION THEREOF, AND USE THEREOF” (Jiangsu Chia Tai Fenghai Pharmaceutical Co., Ltd., priority 2023, dated 2024):
Where two headings read alike, the source gives them in different places.

What was measured:
MDA-MB-468 = test: Anti-proliferative activity on tumor cells (Cell Titer-Glo), MDA-MB-468; format: cell-based; details: MDA-MB-468, 7 days, 100% air
Protocol: (§1) Tumor cell lines including HCT-116, MDA-MB-468, Jurkat, HCC70, and MDA-MB-436 were cultured in their respective growth media. Cells were seeded into 384-well plates at densities of 600, 300, 800, 800, and 1000 cells/well (in 18 µL/well), respectively, and incubated overnight at 37°C under 5% CO2 (MDA-MB-468 cells were incubated overnight at 37°C under 100% air). Test sample stock solutions were prepared in DMSO at 10 mM and serially diluted 1:3 across 10 concentrations in 1% DMSO to prepare 10X intermediate dilution plates. Then, 2 µL/well of the 1oX intermediate dilution was added to the cell plates to achieve the final assay concentrations: 10000, 3333, 1111, 370, 123, 41, 14, 4.6, and 1.5 nM. HCT-116, Jurkat, and HCC70 cell plates were incubated for 3, 7, and 7 days at 37°C with 5% CO2, respectively (MDA-MB-468 cell plates were incubated for 7 days at 37°C with 100% air). After treatment, Cell Titer-Glo reagent was removed from -20°C storage and equilibrated to room temperature. Then, 20 µL/well of Cell Titer-Glo reagent was added to each well and incubated for 10 minutes. After the 10-minute incubation, luminescence was measured using a microplate reader. Data were analyzed using Excel and the IC50 values were calculated using GraphPad Prism 7.0 software.

HCT-116 = test: Anti-proliferative activity on tumor cells (Cell Titer-Glo), HCT-116; format: cell-based; details: HCT-116, 3 days
Protocol: as §1

[1] = Pharmacokinetic study in ICR mice (oral gavage and intravenous, plasma LC-MS/MS); format: in vivo; details: for Vd / AUC(0-t) / Cmax / MRT last / clearance / half-life / AUC(0-inf) / concentration at 8 h / Tmax / bioavailability: mouse, plasma; for Vd: iv, 10 mg/kg; for AUC(0-inf): read-out: AUCINF_obs; for concentration at 8 h: read-out: Clast; for bioavailability: read-out: Bioavailability (F)
Protocol: Each group consisted of 12 animals. The dosing vehicle was 10% DMSO + 10% polyoxyethylene castor oil + 80% physiological saline solution. The oral gavage group was fasted for approximately 12 hours prior to dosing and allowed food 4 hours after administration. Water was not restricted during the experiment. Approximately 0.2 mL of blood was collected from the orbital sinus at the following time points: pre-dose and 5, 15, 30 minutes, 1, 2, 4, 6, 8, and 24 hours post-dose. Blood was collected into EP tubes containing EDTA-K2 as anticoagulant and placed on ice. Plasma was separated by centrifugation at 3500 rpm for 5 minutes at 4°C within 1 hour of blood collection. Plasma samples were stored at -20°C until analysis. […] Pharmacokinetic parameters were calculated using WinNonlin software.

Jurkat = test: Anti-proliferative activity on tumor cells (Cell Titer-Glo), Jurkat; format: cell-based; details: 7 days
Protocol: as §1

HCC70 = test: Anti-proliferative activity on tumor cells (Cell Titer-Glo), HCC70; format: cell-based; details: HCC70, 7 days
Protocol: as §1

CDK7/CycH/MAT1 = CDK7/CycH/MAT1 (Homo sapiens, UniProt P50613); test: Inhibition of CDK7/CycH/MAT1 kinase activity (ADP-Glo); format: biochemical; details: IC50, ATP 30 µM, substrate 0.1 µM, 60 minutes at 25°C
Protocol: The CDK7/CycH/MAT1 protein was thawed on ice, and the remaining reagents were equilibrated to room temperature. The CDK7/CycH/MAT1 protein and ATP/substrate were diluted to the corresponding concentrations using enzyme reaction buffer (50 mM Hepes, 10 mM MgCl2, 0.01% Brij35, 1 mM EGTA, 2 mM DTT). The test compounds were added to a 384-well white low-volume enzyme assay plate at 20 nL per well, followed by the addition of the prepared CDK7/CycH/MAT1 protein (2 µL/well), mixed well, and incubated at 25°C for 10 minutes. The reaction was initiated by adding ATP/substrate and allowed to proceed at 25°C for 60 minutes. The final concentrations of each component in the enzyme reaction system were as follows: CDK7/CycH/MAT1 protein, 3.5 ng/µL; ATP, 30 µM; substrate, 0.1 µM. The concentrations of the test compounds ranged from high to low as follows: 5000, 1667, 556, 185, 62, 21, 7, 2, 1, and 0.3 nM. After completion of the enzymatic reaction, 4 µL of ADP-Glo Reagent was added to each well and incubated at 25°C for 40 minutes. Subsequently, 8 µL of Kinase Detection Reagent was added to each well and incubated at25°C for another 40 minutes. Chemiluminescence signals were recorded using a microplate reader, and the data were used to generate dose-response curves and calculate IC50 values.

[2] = male ICR mice, iv. 10mg/kg, read-out: Vss
[3] = male ICR mice, iv. 10mg/kg, read-out: Vz

CDK7/CycH/MAT1, sequence (P50613 whole entry, species assumed): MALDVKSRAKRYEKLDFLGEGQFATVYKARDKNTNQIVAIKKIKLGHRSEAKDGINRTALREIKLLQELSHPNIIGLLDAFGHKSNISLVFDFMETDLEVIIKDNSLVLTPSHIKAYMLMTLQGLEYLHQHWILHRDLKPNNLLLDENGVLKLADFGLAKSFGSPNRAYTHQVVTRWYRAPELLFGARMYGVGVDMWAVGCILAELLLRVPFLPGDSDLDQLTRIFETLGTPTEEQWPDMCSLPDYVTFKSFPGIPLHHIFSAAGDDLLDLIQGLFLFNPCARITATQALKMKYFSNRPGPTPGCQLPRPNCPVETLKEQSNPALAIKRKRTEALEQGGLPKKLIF
CDK7/CycH/MAT1, sequence (P51946 whole entry partner, species assumed): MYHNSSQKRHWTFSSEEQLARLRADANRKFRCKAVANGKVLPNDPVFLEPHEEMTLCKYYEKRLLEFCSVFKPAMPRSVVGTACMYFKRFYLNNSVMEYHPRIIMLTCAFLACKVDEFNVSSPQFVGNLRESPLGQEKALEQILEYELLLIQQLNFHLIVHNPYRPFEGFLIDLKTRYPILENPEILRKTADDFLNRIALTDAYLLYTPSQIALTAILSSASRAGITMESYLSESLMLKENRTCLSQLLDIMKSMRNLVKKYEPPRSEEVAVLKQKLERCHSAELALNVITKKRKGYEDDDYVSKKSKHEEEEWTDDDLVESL
CDK7/CycH/MAT1, sequence (P51948 whole entry partner, species assumed): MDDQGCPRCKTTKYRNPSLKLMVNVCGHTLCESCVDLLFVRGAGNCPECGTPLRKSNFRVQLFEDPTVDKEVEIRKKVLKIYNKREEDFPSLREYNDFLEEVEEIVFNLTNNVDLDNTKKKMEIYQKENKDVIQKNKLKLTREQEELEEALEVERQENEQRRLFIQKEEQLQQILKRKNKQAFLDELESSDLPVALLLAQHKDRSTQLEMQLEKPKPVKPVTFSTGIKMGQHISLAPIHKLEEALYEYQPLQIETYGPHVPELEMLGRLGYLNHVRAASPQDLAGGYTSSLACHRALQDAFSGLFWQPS

| Compound | IC30 (MDA-MB-468) | IC30 (HCT-116) | Tlast ([1]; male ICR mice, iv. 10mg/kg) | Tlast ([1]; male ICR mice, po. 10mg/kg) | AUC(0-t) ([1]; male ICR mice, iv. 10mg/kg) | Cmax ([1]; male ICR mice, iv. 10mg/kg) | MRT last ([1]; male ICR mice, iv. 10mg/kg) | clearance ([1]; male ICR mice, iv. 10mg/kg) | half-life ([1]; male ICR mice, iv. 10mg/kg) | AUC(0-inf) ([1]; male ICR mice, iv. 10mg/kg) | AUC(0-t) ([1]; male ICR mice, po. 10mg/kg) | Cmax ([1]; male ICR mice, po. 10mg/kg) | MRT last ([1]; male ICR mice, po. 10mg/kg) | Tmax ([1]; male ICR mice, po. 10mg/kg) | half-life ([1]; male ICR mice, po. 10mg/kg) | AUC(0-inf) ([1]; male ICR mice, po. 10mg/kg) | bioavailability ([1]; male ICR mice, po. 10mg/kg) | IC30 (Jurkat) | IC30 (HCC70) | IC50 (CDK7/CycH/MAT1) | other results |
| --- | --- | --- | --- | --- | --- | --- | --- | --- | --- | --- | --- | --- | --- | --- | --- | --- | --- | --- | --- | --- | --- |
| CC(C)c1cnn2c(NCc3ccccc3)cc(NC[C@H]3CCNC[C@@H]3O)nc12 [CT7001, reference compound] | 602.2 nM | 463.7 nM | 8 H | 8 h | 8120 ng·h/mL | 17400 ng/mL | 1.3 h | 20 mL/min/kg | 1.5 h | 8400 ng·h/mL | 541 ng·h/mL | 99 ng/mL | 3.6 h | 2 h | 2.5 h | 653 ng·h/mL | 7.8% | 473.3 nM | 518.9 nM |  | Vz ([1]; male ICR mice, po. 10mg/kg): 55.15 L/kg; Vd ([1]; male, ICR, iv. 10mg/kg, read-out: Vss): 1.91 L/kg; Vd ([1]; male, ICR, iv. 10mg/kg, read-out: Vz): 2.62 L/kg; concentration at 8 h ([1]; male ICR mice, iv. 10mg/kg): 126 ng/mL; concentration at 8 h ([1]; male ICR mice, po. 10mg/kg): 31 ng/mL |
| [2H]C([2H])(Nc1cc(NC[C@H]2CCNC[C@@H]2O)nc2c(C(C)C)cnn12)c1ccccc1 [Compound 8] | 350.4 nM | 231.7 nM |  |  |  |  |  |  |  |  |  |  |  |  |  |  |  | 329.4 nM |  |  |  |
| N#Cc1cnn2c(NCc3ccccc3)cc(NC[C@H]3CCNC[C@@H]3O)nc12 [Compound 22] | 2910.0 nM | 3453.0 nM |  |  |  |  |  |  |  |  |  |  |  |  |  |  |  | 4087.0 nM |  | 4.31 nM |  |
| C#CCNc1cc(NC[C@H]2CCNC[C@@H]2O)nc2c(C(C)C)cnn12 [Compound 33] | 1101 nM | 788.3 nM | 24 H | 6 h | 1510 ng·h/mL | 990 ng/mL | 2.4 h | 104 mL/min/kg | 10 h | 1600 ng·h/mL | 65 ng·h/mL | 26 ng/mL | 2.4 h | 0.5 h | 2.9 h | 88 ng·h/mL | 5.5% | 200.8 nM | 501.9 nM | 2.7 nM | Clast ([1]; male ICR mice, iv. 10mg/kg): 6 ng/mL; T1/2 ([1]; male ICR mice, iv. 10mg/kg): longer half-life; Vss ([1]; male ICR mice, iv. 10mg/kg): higher steady-state apparent volume of distribution; Clast ([1]; male ICR mice, po. 10mg/kg): 5 ng/mL; Vd [1, 2]: 27.8 L/kg; Vd [1, 3]: 90 L/kg |
| CC#CCNc1cc(NC[C@H]2CCNC[C@@H]2O)nc2c(C(C)C)cnn12 [Compound 38] | 765.9 nM | 391.3 nM |  |  |  |  |  |  |  |  |  |  |  |  |  |  |  | 858.8 nM | 968.8 nM | 18.9 nM |  |
| C=CCNc1cc(NC[C@H]2CCNC[C@@H]2O)nc2c(C(C)C)cnn12 [Compound 41] |  |  | 8 H | 8 h | 2960 ng·h/mL | 4360 ng/mL | 1.1 h | 55 mL/min/kg | 2.3 h | 3020 ng·h/mL | 445 ng·h/mL | 150 ng/mL | 2.5 h | 2 h | 1.5 h | 462 ng·h/mL | 15% |  |  | 6.3 nM | Clast ([1]; male ICR mice, iv. 10mg/kg): 19 ng/mL; Vss ([1]; male ICR mice, iv. 10mg/kg): higher steady-state apparent volume of distribution; Bioavailability (F) ([1]; male ICR mice, po. 10mg/kg): better oral bioavailability; Clast ([1]; male ICR mice, po. 10mg/kg): 8 ng/mL; Vd [1, 2]: 4.22 L/kg; Vd [1, 3]: 10.9 L/kg |
| CC(C)c1cnn2c(NCC3CC3)cc(NC[C@H]3CCNC[C@@H]3O)nc12 [Compound 45] | 851.8 nM | 429.4 nM |  |  |  |  |  |  |  |  |  |  |  |  |  |  |  | 1126 nM | 596.4 nM | 21.2 nM |  |
